Test results from publication PMC10458596, “Synthesis, In Silico Logp Study, and In Vitro Analgesic Activity of Analogs of Tetrapeptide FELL” (Pharmaceuticals, 2023).
Residues, ends and D or L forms follow the SMILES beside them.

Experiments:
[1] = test system: male Wistar rats; assay: Paw-pressure test (Randall-Selitto test), PPT; format: in vivo, rat; details: for Analgesic activity (PPT) over time: 0.25 mg/kg i.p. in saline, measured every 10 min from 10th to 50th min, n = 8-10 per group, PPT in AU, mean ± S.E.M. (Figure 2)
Procedure: (§1) The experiments were carried out on male Wistar rats (180–200 g) kept under normal conditions at ambient room temperature (22 °C). The animals were divided into five experimental groups, each including 8–10 animals, and a control group (n = 10). All experimental procedures were carried out between 10:00 a.m. and 1:00 p.m. after having been approved by the Research Ethics Commission of the Medical University—Sofia.
(§2) The control group received 0.2 mL of saline intraperitoneally injected (i.p.), while the animals from each one of the experimental groups received 0.2 mL (0.25 mg/kg, i.p.) of one of the five newly synthesized analogs dissolved in saline.
(§3) Changes in the mechanical nociceptive thresholds (PPT) of experimental animals were measured by an analgesimeter. Pressure was applied to the hind paw, and the value (g) required to elicit a nociceptive response (i.e., a squeak or struggle) was taken as the mechanical nociceptive threshold. A cut-off value of 500 g was used to prevent damage to the paw.
(§4) Nociception was evaluated every 10 min from the 10th minute after the newly synthesized analog was administered until the 50th minute.
The results were statistically assessed by one-way analysis of variance followed by a Newman-Keuls post-hoc comparison test. Values are represented as mean ± S.E.M. Values of p < 0.05 were considered to indicate statistical significance.

[2] = test system: male Wistar rats; assay: Paw-pressure test after Naloxone or AM251 pretreatment; format: in vivo, rat; details: 10th to 50th min (Figure 3); for Analgesia (PPT) after AM251 pretreatment: peptide i.p. after AM251 (CB1R antagonist) pretreatment; for Analgesia (PPT) after Naloxone pretreatment: peptide i.p. after Naloxone (MOR antagonist) pretreatment
Procedure: as §1, §2, §3, §4
In order to estimate which type of receptor participates in the analgesic effects of the newly synthesized substances, pretreatments have been made with Naloxone—an antagonist with a high binding affinity for the MORs, clinically used to prevent fatal overdose consequences—and AM251—a CB1Rs’ antagonist.

[3] = test system: white blood cells (WBC), especially neutrophils and macrophages, in bronchoalveolar fluid (BALF); parameters: method as in PMID 25632019; details: cited from earlier work

Row | Compound | Analgesic activity (PPT) over time [1] | Reduction of total number of white blood cells and their accumulation in BALF in the lungs [3] [%] | further results
1 | H-Phe-Glu-Ile-Ile-NH2 [BB4, FELL analog with Ile at positions 3 and 4, C-terminal amide] | fluctuating analgesia that did not reach the values of the parent compound | – | –
2 | CC(C)C[C@H](NC(=O)[C@H](CC(C)C)NC(=O)[C@H](CCC(=O)O)NC(=O)[C@@H](N)Cc1ccccc1)C(=O)O [BB11, H-Phe-Glu-Leu-Leu-OH, reference compound] (H-FELL-OH) | constantly increased PPT for the total time of the evaluation | 51 | Analgesia (PPT) after AM251 pretreatment [2]: completely abolished the analgesia; Analgesia (PPT) after Naloxone pretreatment [2]: completely abolished the analgesia
3 | CC(C)C[C@H](NC(=O)[C@H](CC(C)C)NC(=O)[C@H](CCC(=O)O)NC(=O)[C@@H](N)Cc1ccccc1)C(N)=O [BB1, H-Phe-Glu-Leu-Leu-NH2] (H-FELL-NH2) | gradually increasing analgesic activity over time | – | Analgesic activity (PPT) vs parent compound BB11 at the end of the reported period ([1]; 0.25 mg/kg i.p., 50th min, F = 5.38217, p = 0.042776): exceeded that of the parent compound BB11; Analgesia (PPT) after AM251 pretreatment [2]: completely abolished the analgesia; Analgesia (PPT) after Naloxone pretreatment [2]: completely abolished the analgesia
4 | CCCC[C@H](NC(=O)[C@H](CCCC)NC(=O)[C@H](CCC(=O)O)NC(=O)[C@@H](N)Cc1ccccc1)C(N)=O [BB2, H-Phe-Glu-Nle-Nle-NH2] (HELM PEPTIDE1{F.E.[Nle].[Nle].[am]}$$$$V2.0) | fluctuating analgesia that did not reach the values of the parent compound | – | –
5 | TDIFELLK | – | 57 | –
6 | TDIFELL | – | 54 | –
7 | CC(C)[C@H](NC(=O)[C@@H](NC(=O)[C@H](CCC(=O)O)NC(=O)[C@@H](N)Cc1ccccc1)C(C)C)C(N)=O [BB3, H-Phe-Glu-Val-Val-NH2] (H-FEVV-NH2) | highest but short-lasting analgesic activity | – | Analgesic activity (PPT) vs BB11 at the 10th minute ([1]; 0.25 mg/kg i.p., 10th min, F = 92.35602, p < 0.00001): exceeded that of BB11
